Assay results reported in patent publication US20200046625A1, “COMPOUNDS USEFUL FOR THE TREATMENT AND/OR CARE OF THE SKIN, HAIR, NAILS AND/OR MUCOUS MEMBRANES” (LUBRIZOL ADVANCED MATERIALS, INC., priority 2016, published 2020).
The star is where a group is joined. Palmitoyl = CCCCCCCCCCCCCCCC(=O)*; Myristoyl = CCCCCCCCCCCCCC(=O)*

Tests used:
[1] = system: primary human subcutaneous pre-adipocyte cells; assay: Reduction of lipid accumulation, AdipoRed fluorescent assay; format: cell-based; conditions: 8 days of treatment, PGM2 = 0%, PDM2 basal control = 100%
Procedure: The reduction of the percentage of lipid accumulation in human pre-adipocyte cells in a complete differentiation medium (basal control) is studied by treatment of the cells with the peptides of the invention. Quantification of lipid accumulation is evaluated with AdipoRed™ Assay Reagent (Lonza). Human pre-adipocyte cells (Lonza) are seeded in quadruplicate (10.000 cells/well) on a 96-well plate and they are incubated on a complete growth medium (PGM2, Lonza) for 24 hours at […] in a water-saturated atmosphere composed of 95% air and 5% CO2. The differentiation of pre-adipocytes into adipocytes is induced by changing the complete growth medium (PGM2, Lonza) for the complete differentiation medium (PDM2, Lonza). The cells are treated with the peptides of the invention at different concentrations prepared in complete differentiation medium. Caffeine (Sigma) at 0.2 mg/ml in PDM2 medium is used as a negative control of the lipid accumulation in the cells. Caffeine is the most widely used anti-cellulite cosmetic agent. […] Manufacturer protocol is followed for the use of AdipoRed™ Assay Reagent (Lonza). In brief, the cells are washed and the reagent AdipoRed™ is added diluted (5/200). After being incubated for 15 minutes in darkness and at room temperature, the Relative Fluorescence Units (RFUs) are measured using a fluorescence plate reader (CLARIOstar™, BMG LABTECH), with excitation filter at 485 nm and emission filter at 572 nm. […] The results are calculated as the mean of all the independent experiments carried out in each case for each peptide and concentration assayed.

[2] = system: Nocturnin (CCRN4L) in primary human subcutaneous pre-adipocyte cells; assay: Relative level of nocturnin by ELISA, normalized with BCA total protein; format: cell-based; conditions: for Nocturnin level with respect to basal condition (%): 6 days of treatment, mean of 3 independent experiments
Procedure: The decrease in the relative level of nocturnin protein in human pre-adipocytes, cells that form adipose tissue, in a complete differentiation medium (basal condition) is studied when treating the peptides of the invention.
Human pre-adipocytes are seeded (10,000 cells/well, 4 wells per condition) on a 96-well plate and incubated on a complete growth medium (PGM2, LONZA) for 24 hours at 37° C. at an atmosphere with a CO2 level of 5%.
After incubation, the cells are treated with the peptides at 0.1, 0.5 and 1 mg/ml and its respective vehicles prepared in a complete differentiation medium (PDM2, LONZA). After 6 days of treatment at an atmosphere with 37° C. and a 5% CO2 level, the nocturnin level is measured using an ELISA test, and the total protein concentration is measured using a BCA (Bicinchoninic Acid) assay. For each concentration, the ELISA results are normalized with the BCA results. […] The values represent the mean of 3 independent experiments.
The manufacturer protocol of the ELISA kit for Carbon Catabolite Repression 4 Like Protein (CCRN4L) (Uscn Life Science Inc) is followed. In brief, the cells are lysed and the cell extracts are incubated on a 96-well plate coated with an anti-body specific to CCRN4L. Afterwards, the wells are coated with an antibody specific to CCRN4L conjugated with Biotin. Next, the Avidin conjugated with the enzyme Horseradish Peroxidase (HRP) is added to the plate. Finally, 3,3′,5,5′-Tetramethylbenzidine substrate is added to the plate and a change in color is observed proportionally to the quantity of nocturnin in each concentration. Lastly, a sulfuric acid solution is added to stop the enzyme-substrate reaction and quantify the color change with an absorbance reader (CLARIOstar™, BMG LABTECH) at 450 and 570 nm.
The manufacturer protocol of the BCA Protein assay kit (Pierce) is followed. The total protein concentration of the lysed cells is measured via a colorimetric reaction using a protein standard. In brief, the standard and the samples are distributed onto 96-well plates. The plate is then incubated with the reagent of the kit and finally the change in color is measured with the absorbance reader (CLARIOstar, BMG LABTECH) at 570 nm.

| Molecule | % Lipid Accumulation ([1]; 1 mg/ml) | also measured |
| --- | --- | --- |
| H-Tyr-Met-Tyr-NH2 | 40.24% | – |
| H-Tyr-Ile-Tyr-NH2 | 46.63% | – |
| H-Tyr-Val-Tyr-NHC16H33 | 50.12% | – |
| Cn1c(=O)c2c(ncn2C)n(C)c1=O [Caffeine, reference compound] | – | % Lipid Accumulation ([1]; 0.2 mg/ml in PDM2): 76.07% |
| H-Tyr-Ile-Tyr-NHC6H13 | 52.82% | – |
| H-Tyr-Val-Trp-NH2 | 61.87% | – |
| H-Tyr-Val-Tyr-OH | 22.66% | % Lipid Accumulation ([1]; 0.1 mg/ml): 35.14%; % Lipid Accumulation ([1]; 0.5 mg/ml): 33.55%; Nocturnin level with respect to basal condition (%) ([2]; 0.1 mg/mL): 67%; Nocturnin level with respect to basal condition (%) ([2]; 0.5 mg/mL): 87%; Nocturnin level with respect to basal condition (%) ([2]; 1 mg/mL): 83% |
| H-Phe-Trp-Tyr-Val-Tyr-NH2 (H-FWYVY-NH2) | – | % Lipid Accumulation ([1]; 0.005 mg/ml): 55.99% |
| Myristoyl-Tyr-Val-Phe-NH2 | 37.77% | – |
| Ac-Trp-Val-Tyr-NH2 | 63.18% | – |
| Myristoyl-Tyr-Val-Tyr-NH2 | 12.40% | – |
| H-Tyr-Val-Tyr-NHC6H13 | 30.79% | – |
| H-Tyr-Val-Tyr-NH2 | 15.65% | % Lipid Accumulation ([1]; 0.1 mg/ml): 32.65%; % Lipid Accumulation ([1]; 0.5 mg/ml): 18.60%; Nocturnin level with respect to basal condition (%) ([2]; 0.1 mg/mL): 76%; Nocturnin level with respect to basal condition (%) ([2]; 0.5 mg/mL): 62%; Nocturnin level with respect to basal condition (%) ([2]; 1 mg/mL): 48%; dose-response of nocturnin reduction (in words) ([2]; 0.1, 0.5 and 1 mg/ml): a dose-response relationship is observed |
| H-Phe-Tyr-Val-Tyr-Phe-NH2 (H-FYVYF-NH2) | 64.31% | – |
| H-Tyr-Ile-Phe-NH2 | 47.45% | – |
| Palmitoyl-Tyr-Val-Tyr-NH2 | – | % Lipid Accumulation ([1]; 0.1 mg/ml): 86.17% |
| Ac-Tyr-Val-Tyr-NH2 | 20.81% | – |
| H-Tyr-Ile-Tyr-NHC16H33 | 23.74% | – |
| H-Tyr-Val-Tyr-Trp-NH2 (H-YVYW-NH2) | 90.32% | – |
| Palmitoyl-Tyr-Leu-Tyr-OH | – | % Lipid Accumulation ([1]; 0.005 mg/ml): 79.98% |
| H-Tyr-Ile-Phe-NHC16H33 | 40.61% | – |
| H-Tyr-Val-Tyr-Phe-NH2 (H-YVYF-NH2) | 86.68% | – |
| H-Tyr-Leu-Trp-NH2 | 62.42% | – |
| H-Tyr-Ile-Phe-NHC6H13 | 30.72% | – |
| Palmitoyl-Tyr-Leu-Tyr-NH2 | 25.42% | – |
| H-Tyr-Val-Tyr-Phe-Trp-NH2 (H-YVYFW-NH2) | 76.47% | – |
